Test results taken from ChEMBL document CHEMBL1201862, “PubChem BioAssay data set” (2004).
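96-well plates; 48 h exposure; 5 concentrations. Endpoints by linear interpolation between flanking doses. Not reached: highest tested concentration assigned. Abbreviation: GI50, concentration required for 50% inhibition of growth.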 Active and inactive are the calls of the source. No stated cut-off is given here; in the data, active = GI50 up to about 1.1 µM and inactive = higher.

Tests used:
Test in all cases: NCI-60 cell line screen, 48 h
786-0 = test system: 786-0
A498 = test system: A498
A549 = test system: A549
ACHN = test system: ACHN
COLO 205 = test system: COLO 205
EKVX = test system: EKVX
HOP-62 = test system: HOP-62
HT-29 = test system: HT-29
MOLT-4 = test system: MOLT-4
NCI-H23 = test system: NCI-H23
NCI-H522 = test system: NCI-H522
RXF 393 = test system: RXF 393
SF-268 = test system: SF-268
SK-MEL-5 = test system: SK-MEL-5
SK-OV-3 = test system: SK-OV-3
UACC-257 = test system: UACC-257
UACC-62 = test system: UACC-62
RPMI-8226 = test system: RPMI-8226

Cn1cc/c(=N\N=c2/ccn(C)c3ccccc23)c2ccccc21
GI50 (786-0): 16.4 µM (inactive) | GI50 (A498): 18.5 µM (inactive) | GI50 (A549): 15.7 µM (inactive) | GI50 (ACHN): 13.9 µM (inactive) | GI50 (COLO 205): 10.4 µM (inactive) | GI50 (EKVX): 14.7 µM (inactive) | GI50 (HOP-62): 13.1 µM (inactive) | GI50 (HT-29): 12.7 µM (inactive) | GI50 (MOLT-4): 27.1 µM (inactive) | GI50 (NCI-H23): 13.2 µM (inactive) | GI50 (NCI-H522): 14.6 µM (inactive) | GI50 (RXF 393): 14.3 µM (inactive) | GI50 (SF-268): 19.3 µM (inactive) | GI50 (SK-MEL-5): 15.9 µM (inactive) | GI50 (SK-OV-3): 15.7 µM (inactive) | GI50 (UACC-257): 13.9 µM (inactive) | GI50 (UACC-62): 16.2 µM (inactive)

Cc1nc([N+](=O)[O-])cn1CC(=N)N
GI50 (786-0): > 100 µM (inactive) | GI50 (A498): > 100 µM (inactive) | GI50 (A549): > 100 µM (inactive) | GI50 (ACHN): > 100 µM (inactive) | GI50 (COLO 205): > 100 µM (inactive) | GI50 (EKVX): > 100 µM (inactive) | GI50 (HOP-62): > 100 µM (inactive) | GI50 (HT-29): > 100 µM (inactive) | GI50 (MOLT-4): > 100 µM (inactive) | GI50 (NCI-H23): > 100 µM (inactive) | GI50 (RPMI-8226): > 100 µM (inactive) | GI50 (RXF 393): > 100 µM (inactive) | GI50 (SF-268): > 100 µM (inactive) | GI50 (SK-MEL-5): > 100 µM (inactive) | GI50 (UACC-257): > 100 µM (inactive) | GI50 (UACC-62): > 100 µM (inactive)

CC(=O)N1[C@H](C(=O)O)CS[C@H]1c1ccncc1
GI50 (786-0): > 100 µM (inactive) | GI50 (A498): > 100 µM (inactive) | GI50 (A549): > 100 µM (inactive) | GI50 (ACHN): > 100 µM (inactive) | GI50 (COLO 205): > 100 µM (inactive) | GI50 (EKVX): > 100 µM (inactive) | GI50 (HOP-62): > 100 µM (inactive) | GI50 (HT-29): > 100 µM (inactive) | GI50 (MOLT-4): > 100 µM (inactive) | GI50 (NCI-H23): > 100 µM (inactive) | GI50 (RPMI-8226): > 100 µM (inactive) | GI50 (RXF 393): > 100 µM (inactive) | GI50 (SF-268): > 100 µM (inactive) | GI50 (SK-MEL-5): > 100 µM (inactive) | GI50 (UACC-257): > 100 µM (inactive) | GI50 (UACC-62): > 100 µM (inactive)

CCOC(=O)C1=C(NC)OC/C1=N\NC(=O)c1ccccc1O
GI50 (786-0): 33.4 µM (inactive) | GI50 (A498): > 100 µM (inactive) | GI50 (A549): 32.1 µM (inactive) | GI50 (COLO 205): > 100 µM (inactive) | GI50 (EKVX): 44.6 µM (inactive) | GI50 (HOP-62): 28 µM (inactive) | GI50 (MOLT-4): 22.9 µM (inactive) | GI50 (NCI-H23): 6.87 µM (inactive) | GI50 (NCI-H522): 9.31 µM (inactive) | GI50 (RPMI-8226): 32.3 µM (inactive) | GI50 (RXF 393): 16.7 µM (inactive) | GI50 (SF-268): 6.53 µM (inactive) | GI50 (SK-MEL-5): 35.8 µM (inactive) | GI50 (SK-OV-3): > 100 µM (inactive) | GI50 (UACC-257): 1.49 µM (inactive) | GI50 (UACC-62): 7.03 µM (inactive)

CCOc1ccccc1NC(=O)C(C#N)C1=C(Cl)C(=O)c2ccccc2C1=O (stereo unspecified)
GI50 (786-0): 1.79 µM (inactive) | GI50 (A498): 19.8 µM (inactive) | GI50 (A549): 1.95 µM (inactive) | GI50 (ACHN): 1.79 µM (inactive) | GI50 (COLO 205): 1.98 µM (inactive) | GI50 (EKVX): 1.5 µM (inactive) | GI50 (HOP-62): 6.04 µM (inactive) | GI50 (HT-29): 2.29 µM (inactive) | GI50 (MOLT-4): 1.17 µM (inactive) | GI50 (NCI-H23): 2.14 µM (inactive) | GI50 (NCI-H522): 2.09 µM (inactive) | GI50 (RPMI-8226): 1.58 µM (inactive) | GI50 (RXF 393): 1.97 µM (inactive) | GI50 (SF-268): 2.11 µM (inactive) | GI50 (SK-MEL-5): 1.5 µM (inactive) | GI50 (SK-OV-3): 26.2 µM (inactive) | GI50 (UACC-257): 1.06 µM (active) | GI50 (UACC-62): 1.83 µM (inactive)

COc1cc2c3c(c1OC)/C(=N/OS(=O)(=O)c1ccc(C)cc1)CC3N(S(=O)(=O)c1ccc(C)cc1)CC2 (stereo unspecified)
GI50 (786-0): > 100 µM (inactive) | GI50 (A498): > 100 µM (inactive) | GI50 (A549): > 100 µM (inactive) | GI50 (ACHN): > 100 µM (inactive) | GI50 (COLO 205): > 100 µM (inactive) | GI50 (EKVX): > 100 µM (inactive) | GI50 (HOP-62): > 100 µM (inactive) | GI50 (HT-29): > 100 µM (inactive) | GI50 (NCI-H23): > 100 µM (inactive) | GI50 (NCI-H522): > 100 µM (inactive) | GI50 (RPMI-8226): > 100 µM (inactive) | GI50 (RXF 393): 53.5 µM (inactive) | GI50 (SF-268): > 100 µM (inactive) | GI50 (SK-MEL-5): > 100 µM (inactive) | GI50 (SK-OV-3): > 100 µM (inactive) | GI50 (UACC-257): > 100 µM (inactive) | GI50 (UACC-62): > 100 µM (inactive)

S=P1(c2ccccc2)Nc2ccc(Cl)cc2N1 (stereo unspecified)
GI50 (786-0): > 100 µM (inactive) | GI50 (A498): > 100 µM (inactive) | GI50 (A549): > 100 µM (inactive) | GI50 (ACHN): 89.1 µM (inactive) | GI50 (COLO 205): 19.9 µM (inactive) | GI50 (EKVX): > 100 µM (inactive) | GI50 (HOP-62): > 100 µM (inactive) | GI50 (HT-29): > 100 µM (inactive) | GI50 (MOLT-4): 20 µM (inactive) | GI50 (NCI-H23): > 100 µM (inactive) | GI50 (NCI-H522): 36.5 µM (inactive) | GI50 (RPMI-8226): 4.68 µM (inactive) | GI50 (SF-268): > 100 µM (inactive) | GI50 (SK-MEL-5): > 100 µM (inactive) | GI50 (SK-OV-3): 37.5 µM (inactive) | GI50 (UACC-257): > 100 µM (inactive) | GI50 (UACC-62): 8.09 µM (inactive)

COc1ccccc1NC(=O)CC(=O)N1N=C(C)C(/N=N/c2ccc(S(N)(=O)=O)cc2)C1=O (stereo unspecified)
GI50 (786-0): > 100 µM (inactive) | GI50 (A498): > 100 µM (inactive) | GI50 (A549): > 100 µM (inactive) | GI50 (ACHN): > 100 µM (inactive) | GI50 (COLO 205): > 100 µM (inactive) | GI50 (EKVX): > 100 µM (inactive) | GI50 (HOP-62): > 100 µM (inactive) | GI50 (HT-29): > 100 µM (inactive) | GI50 (MOLT-4): > 100 µM (inactive) | GI50 (NCI-H23): > 100 µM (inactive) | GI50 (NCI-H522): > 100 µM (inactive) | GI50 (RPMI-8226): > 100 µM (inactive) | GI50 (RXF 393): > 100 µM (inactive) | GI50 (SF-268): > 100 µM (inactive) | GI50 (SK-MEL-5): > 100 µM (inactive) | GI50 (SK-OV-3): > 100 µM (inactive) | GI50 (UACC-257): > 100 µM (inactive) | GI50 (UACC-62): > 100 µM (inactive)

Cc1[nH]c2ccccc2c1C1CC(=O)NC1=O (stereo unspecified)
GI50 (786-0): > 100 µM (inactive) | GI50 (A498): > 100 µM (inactive) | GI50 (A549): > 100 µM (inactive) | GI50 (ACHN): > 100 µM (inactive) | GI50 (EKVX): > 100 µM (inactive) | GI50 (HOP-62): > 100 µM (inactive) | GI50 (HT-29): > 10 µM (inactive) | GI50 (MOLT-4): > 100 µM (inactive) | GI50 (NCI-H23): > 100 µM (inactive) | GI50 (RPMI-8226): > 100 µM (inactive) | GI50 (RXF 393): > 100 µM (inactive) | GI50 (SK-MEL-5): > 100 µM (inactive) | GI50 (SK-OV-3): > 100 µM (inactive) | GI50 (UACC-257): > 100 µM (inactive) | GI50 (UACC-62): > 100 µM (inactive)

COc1cccc(NC(=O)CC(=O)N2N=C(N3c4ccccc4Sc4ccccc43)CC2c2ccccc2)c1 (stereo unspecified)
GI50 (786-0): > 100 µM (inactive) | GI50 (A498): > 100 µM (inactive) | GI50 (A549): > 100 µM (inactive) | GI50 (ACHN): > 100 µM (inactive) | GI50 (COLO 205): > 100 µM (inactive) | GI50 (EKVX): > 100 µM (inactive) | GI50 (HOP-62): > 100 µM (inactive) | GI50 (HT-29): > 100 µM (inactive) | GI50 (MOLT-4): > 100 µM (inactive) | GI50 (NCI-H23): > 100 µM (inactive) | GI50 (RPMI-8226): > 100 µM (inactive) | GI50 (RXF 393): > 100 µM (inactive) | GI50 (SF-268): > 100 µM (inactive) | GI50 (SK-MEL-5): > 100 µM (inactive) | GI50 (SK-OV-3): > 100 µM (inactive) | GI50 (UACC-257): > 100 µM (inactive) | GI50 (UACC-62): > 100 µM (inactive)

O=C(Nc1cc([N+](=O)[O-])cc([N+](=O)[O-])c1)OC1C2CCC1C1OC1C2 (stereo unspecified)
GI50 (786-0): > 50 µM (inactive) | GI50 (A498): > 50 µM (inactive) | GI50 (A549): > 50 µM (inactive) | GI50 (ACHN): > 50 µM (inactive) | GI50 (COLO 205): > 50 µM (inactive) | GI50 (EKVX): > 50 µM (inactive) | GI50 (HOP-62): > 50 µM (inactive) | GI50 (MOLT-4): 34.5 µM (inactive) | GI50 (NCI-H23): > 50 µM (inactive) | GI50 (NCI-H522): 29.1 µM (inactive) | GI50 (RPMI-8226): 22.6 µM (inactive) | GI50 (RXF 393): > 50 µM (inactive) | GI50 (SF-268): 33.7 µM (inactive) | GI50 (SK-MEL-5): 31.3 µM (inactive) | GI50 (SK-OV-3): > 50 µM (inactive) | GI50 (UACC-257): 32.4 µM (inactive) | GI50 (UACC-62): > 50 µM (inactive)

CC(=O)[O-].[O-]c1c(Cl)cc(Cl)cc1/C=N/Nc1ccccn1.[Zn+2]
GI50 (786-0): 1.59 µM (inactive) | GI50 (A498): > 100 µM (inactive) | GI50 (A549): 3.65 µM (inactive) | GI50 (ACHN): 0.535 µM (active) | GI50 (COLO 205): 15.2 µM (inactive) | GI50 (EKVX): 2.18 µM (inactive) | GI50 (HOP-62): 1.81 µM (inactive) | GI50 (HT-29): 6.82 µM (inactive) | GI50 (MOLT-4): 0.183 µM (active) | GI50 (NCI-H23): 0.32 µM (active) | GI50 (NCI-H522): 0.41 µM (active) | GI50 (RPMI-8226): 0.325 µM (active) | GI50 (RXF 393): 0.923 µM (active) | GI50 (SF-268): 0.94 µM (active) | GI50 (SK-MEL-5): 0.593 µM (active) | GI50 (UACC-257): 0.418 µM (active) | GI50 (UACC-62): 0.435 µM (active)
